Values quoted from earlier work as cited in patent publication US20120252675A1, “HERBICIDE […] A […] E[…] A POLYA[…] THE ALKYL GROUP IS BRANCHED” (priority 2009, published 2012).

Settings: room temperature

In the case of `O=C(O)CNCP(=O)(O)O` [glyphosate], the solubility in water is given as “about 1.5 % by weight”.
